From patent publication US20120148501A1, “RADIOLOGICAL IMAGE ENHANCEMENT WITH TANTALUM CLUSTERS” (priority 2010, published 2012)

Legend:
[1] = Solubility of purified cluster in saturated aqueous poly(vinyl alcohol) solution; assay type: physicochemical; conditions: saturated PVA (MW 50k-85k, hydrolyzed), stirred
Text: The solubility of (Ta6Cl12)Cl2 in an aqueous solution of saturated polyvinyl alcohol) (PVA) was investigated by stirring purified (Ta6Cl12)Cl2 with a solution of saturated PVA (MW-50k-85k, hydrolyzed). […] It appeared that PVA complexes of tantalum clusters were poorly soluble in water.

[2] = Cluster concentration from saturated solutions in a variety of solvents (solubility); assay type: physicochemical
Protocol: Optical absorbencies at ˜330 and ˜400 nm were used to track cluster concentration in solution. An approximate molar extinction coefficient was determined by dissolving an isolated and purified cluster sample in water and measuring its absorption. […] Early in the study, the highest sample concentration was 30 mM.
Substitutional doping of divalent zinc on trivalent tantalum sites provides for a reduction in the overall cluster charge. A reduction in the overall cluster charge is also attainable by adjusting the redox chemistry of the starting mixture. Target materials include (Ta6Cl12)Cl2, (Ta6Br12)Cl2, […], (Ta6Br12)Br2, (Ta6I12)I2, (Ta6Cl11O)Cl2, (Ta6Cl11S)CI2, and (Ta5ZnCl12)Cl2. […] These compositions were targeted to elicit materials with enhanced solubility or molecular handles that could be leveraged to further enhance the solubility. […] In the table below, EtOH stands for ethyl alcohol, EG stands for ethylene glycol, PS80 stands for Polysorbate 80, DMSO stands for dimethyl sulfoxide, and EDTA stands for ethylenediaminetetraacetic acid.
The solubility of (Ta6Cl12)Cl2 in an aqueous solution of saturated polyvinyl alcohol) (PVA) was investigated by stirring purified (Ta6Cl12)Cl2 with a solution of saturated PVA (MW-50k-85k, hydrolyzed).

[3] = Protocol: An ultrapurified tantalum cluster of formula (Ta6Cl12)Cl2 (Ultra Purified Ta Ta:TaCl5=1.2) was dissolved in water at a concentration of 355 mM, and in ethylene glycol at a concentration of 592 mM. The resulting water solutions were subjected to radiography to gauge their X-ray absorption characteristics. The samples were loaded into 2 mL polypropylene screw cap tubes with a 1 cm inner diameter. These samples were imaged alongside four calibration standards: 1) aluminum step wedge, 2) polycarbonate step wedge, 3) tantalum foils from 0.0127 to 0.5 mm thick, and 4) a water dilution series containing from 0 to 100% by volume of GE Healthcare's iodinated contrast agent, Visipaque, that contains 320 mg I/mL, in the same 2 mL tubes. Images were collected on a GE Healthcare OEC 9900 Elite digital X-ray Imaging System with a Tri-mode Image Intensifier at 50 KeV with filament currents varied from 0.4 to 9.0 mA. FIG. 2 below is a characteristic image of candidate aqueous samples (first two samples from the left) from the left, marked A and B) alongside calibration samples.
FIG. 3 is imaged through 8 cm of water serving as a low X-ray energy filter and simulating an arm or leg phantom to produce clinically equivalent images. […]

(Ta6Cl12)Cl2
Solubility in aqueous solution of saturated poly(vinyl alcohol) [1]: most of the color was lost as a deep green precipitate formed

(Ta6Cl12)Cl2 [Ta Red, Ta:TaCl5=1.2]
Cluster concentration from saturated solution, 5% EDTA [2]: 12 mM
Cluster concentration from saturated solution, DMSO [2]: 2 mM
Cluster concentration from saturated solution, H2O [2]: 59 mM

(Ta6Cl12)Cl2 [Ultra purified Ta Red]
Remaining soluble cluster X-ray absorption, as equivalent Visipaque calibration solution [3]: ~37.5%
Remaining soluble cluster X-ray absorption, as equivalent tantalum foil stack thickness [3]: ~0.0889 mm
Cluster concentration from saturated solution, EG [2]: 592 mM
Cluster concentration from saturated solution, H2O [2]: 355 mM
